Laboratory results: patent US12011444B2, “N-substituted indole derivatives as PGE2 receptor modulators” (Idorsia Pharmaceuticals Ltd, priority 2015, dated 2024)

How the values were obtained:
[1] = target: EP4 (Homo sapiens (Human), UniProt P35408); experiment: hEP4 cAMP assay (BT549 breast cancer cells, HTRF cAMP); type: cell-based
Procedure: Plate is pre-incubated 45 minutes at room temperature. Subsequently, 2.5 microliters of PGE2 (final conc. 6 nM) are transferred into the assay plate. Plate is incubated 30 minutes at room temperature.

[2] = target: EP2 (Homo sapiens (Human), UniProt P43116);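 also: antagonism of PGE2-stimulated cAMP accumulation in SF295 human glioblastoma cells with endogenous EP2, cAMP read by HTRF, expressed relative to DMSO control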
Chain of EP2 (P43116 whole entry): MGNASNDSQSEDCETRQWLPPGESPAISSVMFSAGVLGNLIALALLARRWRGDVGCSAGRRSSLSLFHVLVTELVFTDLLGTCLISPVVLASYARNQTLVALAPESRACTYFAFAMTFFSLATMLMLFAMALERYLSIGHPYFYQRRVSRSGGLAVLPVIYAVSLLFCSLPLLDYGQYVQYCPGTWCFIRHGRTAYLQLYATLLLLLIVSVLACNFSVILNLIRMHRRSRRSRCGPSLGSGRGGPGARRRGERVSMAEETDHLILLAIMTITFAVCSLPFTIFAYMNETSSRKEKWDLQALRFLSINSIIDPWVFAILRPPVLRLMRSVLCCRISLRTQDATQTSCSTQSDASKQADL
Description: Human tumor cell lines expressing endogenously either EP4 or EP2 are used and cAMP accumulation in cells upon PGE2 stimulation is monitored. SF295 glioblastoma cells express high endogenous EP2 and no EP4, whereas BT549 breast cancer cells, express high endogenous EP4 levels and very low EP2 levels.
As a detection method for cAMP the HTRF (homogeneous time resolved fluorescence) Cisbio kit (HTRF cAMP dynamic 2 kit 20′000 tests Cisbio Cat. #62AM4PEC) was used, which is based on a competitive immunoassay using a Cryptate-labeled anti-cAMP antibody and d2-labeled cAMP. Native cAMP produced by cells or unlabeled cAMP (for the standard curve) compete with exogenously added d2-labeled cAMP (acceptor) for binding to monoclonal anti-cAMP-Eu3+Cryptate (donor). A FRET signal (Fluorescence Resonance Energy Transfer) is obtained only if the labeled anti-cAMP antibody binds the d2 labelled cAMP, thus the specific signal (i.e. energy transfer) is inversely proportional to the concentration of cAMP in the standard or sample.
The SF295 cells (NCI/No. 0503170) are detached from culture dishes with a cell dissociation buffer (Invitrogen, 13151-014), and collected in growing medium (GM: RPM11640 (Invitrogen 21875)/10% FCS, 1% Penicilin/streptomycin). Cells are counted washed and resuspended in assay buffer (AB; HBSS, 20 mM HEPES, 0.2% BSA; 2 mM IBMX). 4,000 cells in 5 μl of AB are seeded per well of a small volume 384 well plate (black with flat bottom, Greiner 784076).
PGE2 (Cayman 14010, stock solution: 75 μM in DMSO) is used as agonist at 75 nM final concentration, corresponding to EC80.
Two point five microliters of diluted compounds are transferred into the assay plate. Plate is pre-incubated 45 minutes at room temperature. Subsequently, 2.5 microliters of PGE2 (final conc. 75 nM) are transferred into the assay plate. Plate is incubated 30 minutes at room temperature. Five μl of each donor (anti-cAMP cryptate) and acceptor (cAMP-d2) are added and the plate is incubated another hour at room temperature in the dark and then read using a BMG LABTECH PHERAstar reader (Excitation: 337 nm, Emission: 620 and 665 nm).
The obtained Delta F (fluorescence) values (665 nm/620 nM) are converted into % cAMP values using the measurements of the cAMP calibrator provided in the kit. For each compound concentration the percentage of cAMP compared to DMSO control value as average±STDEV (each concentration is measured in duplicate) is calculated.
IC50 values and curves are generated with XLfit software (IDBS) using Dose-Response One Site model 203. When compounds were measured multiple times, mean values are given.

[3] = antagonistic activity, mean values where measured multiple times

Chain of EP4 (P35408 whole entry): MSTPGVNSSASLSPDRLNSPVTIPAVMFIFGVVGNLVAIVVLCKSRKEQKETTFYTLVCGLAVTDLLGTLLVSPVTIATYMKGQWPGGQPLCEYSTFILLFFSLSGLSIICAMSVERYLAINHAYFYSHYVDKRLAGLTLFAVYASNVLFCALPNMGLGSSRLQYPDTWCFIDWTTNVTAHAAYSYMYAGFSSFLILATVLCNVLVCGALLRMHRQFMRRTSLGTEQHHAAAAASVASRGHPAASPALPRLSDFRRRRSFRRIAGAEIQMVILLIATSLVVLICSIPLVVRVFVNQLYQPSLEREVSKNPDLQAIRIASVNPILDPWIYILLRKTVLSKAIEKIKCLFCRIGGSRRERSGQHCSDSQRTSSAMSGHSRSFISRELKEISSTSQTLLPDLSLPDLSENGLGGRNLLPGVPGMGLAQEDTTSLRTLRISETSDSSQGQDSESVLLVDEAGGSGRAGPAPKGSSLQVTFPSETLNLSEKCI

| SMILES | IC50 [1, 3] [nM] | IC50 [2] [nM] | IC50 ([1]; (*): measured using the cAMP assay) [nM] |
| --- | --- | --- | --- |
| Cc1cc(F)cc2c1cc(C)n2CCNc1cc(-c2ccc(C(=O)O)c(OCC(C)C)c2)ncn1 [compound 526] | 230 | 10 |  |
| Cc1nc(NCCn2c(C)cc3c(C)cc(F)cc32)cc(-c2cc(C(F)(F)F)c(C(=O)O)s2)n1 [compound 423] | 35 | 44 |  |
| CCCc1cc(-c2cc(NCCn3c(C)cc4c(OC)ccc(Cl)c43)ncn2)cc(Cl)c1C(=O)O [compound 513] | 130 | 24 |  |
| CCCc1cc(-c2cc(NCCn3c(C)cc4c(OC)c(F)ccc43)ncn2)cc(Cl)c1C(=O)O [compound 517] | 373 | 97 |  |
| COc1cc(F)cc2c1cc(C)n2CCNc1cc(-c2ccc(-c3ncnn3C)cc2)ncn1 [Example 753, [2-(6-Fluoro-4-methoxy-2-methyl-indol-1-yl)-ethyl]-{6-[4-(2-methyl-2H-[1,2,4]triazol-3-yl)-phenyl]-pyrimidin-4-yl}-amine] | 548 | 101 |  |
| COc1ccc(F)c2c1cc(C)n2CCNc1cc(-c2ccc(S(N)(=O)=O)c(C(F)(F)F)c2)ncn1 [compound 567, 4-{6-[2-(7-Fluoro-4-methoxy-2-methyl-indol-1-yl)-ethylamino]-pyrimidin-4-yl}-2-trifluoromethyl-benzenesulfonamide] | 89 | 17 |  |
| CCOc1cc(-c2cc(NCCn3c(C)cc4c(C)ccc(F)c43)ncn2)cc(CC)c1C(=O)O [compound 532] | 828 | 33 |  |
| CCCc1cc(-c2cc(NCCn3c(C)cc4cc(OC)cc(F)c43)ncn2)cc(F)c1C(=O)O [compound 516] | 451 | 324 |  |
| COc1ccc(F)c2c1cc(C)n2CCNc1cc(-c2ccc(C3(C(=O)O)CC3)c(F)c2)ncn1 [compound 564] | 317 | 75 |  |
| Cc1cc2c(Cl)cc(Cl)cc2n1CCNc1cc(-c2ccc(C(=O)O)c(CC(C)C)c2)ncn1 [compound 418] | 691 | 74 |  |
| CCCOc1cc(-c2cc(NCCn3c(C)cc4c(OC)cccc43)ncn2)cc(Cl)c1C(=O)O [compound 497] | 168 | 11 |  |
| CCOc1cc(-c2cc(NCCn3c(C#N)cc4c(OC)ccc(F)c43)ncn2)sc1/C=C/C(=O)O [Example 931, (E)-3-(5-{6-[2-(2-Cyano-7-fluoro-4-methoxy-indol-1-yl)-ethylamino]-pyrimidin-4-yl}-3-ethoxy-thiophen-2-yl)-acrylic acid] |  | 35 | 14 |
| CCOc1cc(-c2cc(NCCn3c(C)cc4c(OC)ccc(F)c43)ncn2)ccc1-c1nnn[nH]1 [compound 661] | 39 | 4 |  |
| CCCc1cc(-c2cc(NCCn3c(C)cc4c(OC)c(F)ccc43)ncn2)cc(F)c1C(=O)O [compound 520] | 482 | 82 |  |
| COc1ccc(F)c2c1cc(C)n2CCNc1cc(-c2ccc(C(=O)O)c(N3CCCC3)c2)ncn1 [compound 478, 4-{6-[2-(7-Fluoro-4-methoxy-2-methyl-indol-1-yl)-ethylamino]-pyrimidin-4-yl}-2-pyrrolidin-1-yl-benzoic acid] | 665 | 11 |  |
| COc1cc(F)c(F)c2c1cc(C)n2CCNc1cc(-c2ccc(-c3noc(=O)[nH]3)cc2)ncn1 [compound 678, 3-(4-{6-[2-(6,7-Difluoro-4-methoxy-2-methyl-indol-1-yl)-ethylamino]-pyrimidin-4-yl}-phenyl)-4H-[1,2,4]oxadiazol-5-one] | 40 | 33 |  |
| CCCc1cc(-c2cc(NCCn3c(C)cc4c(OC)ccc(F)c43)ncn2)cc(OCC)c1C(=O)O [compound 634] | 196 | 27 |  |
| COc1cc(F)cc2c1cc(C)n2CCNc1cc(-c2ccc(-c3cc(C)[nH]n3)cc2)ncn1 [compound 583] | 65 | 10 |  |
| CCCc1cc(-c2cc(NCCn3c(C)cc4c(OC)cc(Cl)cc43)ncn2)cc(F)c1C(=O)O [compound 511] | 158 | 18 |  |
| COc1ccc(Cl)c2c1cc(C)n2CCNc1cc(-c2ccc(C(=O)O)c(OC(F)F)c2)ncn1 [compound 631] | 320 | 14 |  |

More lines, in order of falling IC50 [2], values ahead:

| IC50 [1, 3] [nM] | IC50 [2] [nM] | IC50 ([1]; (*): measured using the cAMP assay) [nM] | SMILES |
| --- | --- | --- | --- |
| 146 | 345 |  | CCOc1cc(-c2cc(NCCn3c(C)cc4c(OC)c(Cl)cc(F)c43)ncn2)sc1C(=O)O [compound 409] |
| 719 | 175 |  | CCOc1cc(-c2cc(NCCn3c(C)cc4c(OC)ccc(F)c43)ncn2)ccc1CNC1CCC1 [compound 597] |
| 499 | 58 |  | Cc1nc(NCCn2c(C)cc3c(C)cc(F)cc32)cc(-c2ccc(C(=O)O)c(CC(C)C)c2)n1 [compound 503] |
| 294 | 33 |  | CNS(=O)(=O)c1ccc(-c2cc(NCCn3c(C)cc4c(OC)ccc(F)c43)ncn2)cc1C(F)(F)F [compound 591, 4-{6-[2-(7-Fluoro-4-methoxy-2-methyl-indol-1-yl)-ethylamino]-pyrimidin-4-yl}-N-methyl-2-trifluoromethyl-benzenesulfonamide] |
| 113 | 32 |  | COc1cc(F)cc2c1cc(C)n2CCNc1cc(-c2ccc(-c3nc(C)cs3)cc2)ncn1 [Example 758, [2-(6-Fluoro-4-methoxy-2-methyl-indol-1-yl)-ethyl]-{6-[4-(4-methyl-thiazol-2-yl)-phenyl]-pyrimidin-4-yl}-amine] |
| 60 | 18 |  | COc1cc(F)cc2c1cc(C)n2CCNc1cc(-c2cc(Cl)c(C(=O)O)c(OCC(F)(F)F)c2)ncn1 [compound 721] |
| 459 | 15 |  | Cc1ccc(F)c2c1cc(C)n2CCNc1cc(-c2ccc(C(=O)O)c(N3CCCC3)c2)ncn1 [compound 464, 4-{6-[2-(7-Fluoro-2,4-dimethyl-indol-1-yl)-ethylamino]-pyrimidin-4-yl}-2-pyrrolidin-1-yl-benzoic acid] |
| 99 | 14 |  | CCCc1cc(-c2cc(NCCn3c(C)cc4c(C)ccc(F)c43)ncn2)cc(F)c1C(=O)O [compound 416] |
| 159 | 10 |  | CCOc1cc(-c2cc(NCCn3c(C)cc4c(OC)cc(Cl)cc43)ncn2)ccc1C(=O)O [compound 402] |
| 315 | 10 |  | COc1cc(F)cc2c1cc(C)n2CCNc1cc(-c2ccc(-c3ccno3)cc2)ncn1 [compound 743, [2-(6-Fluoro-4-methoxy-2-methyl-indol-1-yl)-ethyl]-[6-(4-isoxazol-5-yl-phenyl)-pyrimidin-4-yl]-amine] |
| 869 | 10 |  | COc1cc(-c2cc(NCCn3c(C)cc4ccccc43)ncn2)ccc1-c1nnn[nH]1 [Example 746, {6-[3-Methoxy-4-(1H-tetrazol-5-yl)-phenyl]-pyrimidin-4-yl}-[2-(2-methyl-indol-1-yl)-ethyl]-amine] |
| 999 | 4 |  | Cc1cc2ccccc2n1CCNc1cc(-c2ccc3[nH]ccc3c2)ncn1 [compound 695, [6-(1H-Indol-5-yl)-pyrimidin-4-yl]-[2-(2-methyl-indol-1-yl)-ethyl]-amine] |
| 336 | 2 |  | COc1cccc2c1cc(C)n2CCNc1cc(-c2ccc(C(=O)O)c(OC(F)F)c2)ncn1 [compound 598] |
| 136 | 2 |  | CCNc1cc(-c2cc(NCCn3c(C)cc4ccccc43)ncn2)ccc1-c1nnn[nH]1 [compound 671, {6-[3-Ethylamino-4-(1H-tetrazol-5-yl)-phenyl]-pyrimidin-4-yl}-[2-(2-methyl-indol-1-yl)-ethyl]-amine] |
